What was measured:
[1] = system: peptidyl transferase activity of 50S ribosomal subunits; conditions: cited from earlier work
mAb D32.39 [2] = assay: competition binding assay of synthesized peptides for mAb D32.39; conditions: 50 pM tracer peptide containing the D32.39 epitope sequence, IC50 should approximate the Kd, read-out: binding affinity for mAb D32.39 (IC50)
From the text: FIG. 6. (SEQ. ID NO: 50-74) Amino acid alignment of selected peptide sequences with dynorphin B. The six-residue D32.39 epitope sequence of dynorphin B and the peptide regions similar to it are shown in the box. A total of 6, 13, 19, and 9 independent clones were sequenced from rounds 2, 3, 4 and 5, respectively. The frequency indicates the number of times each sequence occurred among the clones isolated from each round, and the asterisks indicate identical sequences found in different rounds. Binding affinities for D32.39 were determined by chemically synthesizing the indicated peptide sequences and measuring the IC50 as described in the Experimental Examples.
Peptides were synthesized with an Applied Biosystems model 431A peptide synthesizer using Fmoc-protected amino acids. The peptides were purified to greater than 90% purity by HPLC and confirmed by mass spectroscopy. The competition binding assay was performed and included a low concentration (50 pM) of the tracer peptide containing the D32.39 epitope sequence.
Peptides corresponding to some of the enriched sequences were chemically synthesized, purified and their identity confirmed by mass spectrometry. A competition binding assay was used to estimate their affinity for the mAb D32.39 and under the conditions of the assays the IC50 value should approximate the Kd. […]

mAb D32.39 [3] = assay: competition binding of radiolabelled polysomes to immobilized mAb D32.39; conditions: wells preincubated with 10 μH dynorphin B peptide for 1 hr at 4° C.
Method: FIG. 2. Specific binding of polysomes to mAb D32.39. Radiolabelled polysomes were isolated from reactions programmed with 1.5 μg of HindIII-linearized plasmid pLM138 or pLM142 and bound to microtiter wells containing the immobilized mAb. The recovered mIRNA was quantitated by TCA precipitation. (Panel A) Binding of polysomes containing the D32.39 epitope (closed boxes) or control (open boxes) sequences. (Panel B) Competition binding assay. Microtiter wells were preincubated with polysome buffer in the absence or presence of 10 μH dynorphin B peptide for 1 hr at 4° C. prior to adding 131,000 cpm of polysomes containing the D32.39 epitope (RQFKVVT) (SEQ ID NO:18) or control (VFKRTVQ) (SEQ ID NO:15) sequences.
Dynal beads were prepared according to the manufacturer. Microtiter wells were prepared for polysome binding by incubating each well with mAb D32.39 (5 μg per well) in PBS (10 mM sodium phosphate pH 7.4/120 mM NaCl/2.7 mM KCl) for 1 hr at 37° C., washing with PBS, blocking with PBS/1% nonfat milk for 1 hr at 37° C. and washing again with polysome buffer. Polysomes, as indicated, were incubated with the antibody for 2 hr at 4° C. […]
Specific Binding of Polysomes to mAb D32.39. The fraction of polysomes capable of binding specifically to mAb D32.39 via the nascent peptide was determined. […]

[4] = biological target: iron response element (IRE); conditions: binds as a monomer; read-out: dissociation constant; cited from earlier work

MSTSKNAD [cmlA 8-mer peptide]
inhibitory activity relative to chloramphenicol ([1]; as inhibitory as chloramphenicol): about 50% | inhibitory activity relative to the cat 5-mer ([1]; more inhibitory than the cat 5-mer): about 5 fold

dynorphin B
IC50 (mAb D32.39 [2]): 0.29 nM | blocking of binding of D32.39 epitope polysomes to mAb D32.39 (mAb D32.39 [3]): binding was blocked

B1: IREBP: iron response element binding protein (98.4 kDal), RNA-binding protein (protein, UniProt P21399 1-889, looked up)
Cytoplasmic aconitate …: MSNPFAHLAEPLDPVQPGKKFFNLNKLEDSRYGRLPFSIRVLLEAAIRNCDEFLVKKQDIENILHWNVTQHKNIEVPFKPARVILQDFTGVPAVVDFAAMRDAVKKLGGDPEKINPVCPADLVIDHSIQVDFNRRADSLQKNQDLEFERNRERFEFLKWGSQAFHNMRIIPPGSGIIHQVNLEYLARVVFDQDGYYYPDSLVGTDSHTTMIDGLGILGWGVGGIEAEAVMLGQPISMVLPQVIGYRLMGKPHPLVTSTDIVLTITKHLRQVGVVGKFVEFFGPGVAQLSIADRATIANMCPEYGATAAFFPVDEVSITYLVQTGRDEEKLKYIKKYLQAVGMFRDFNDPSQDPDFTQVVELDLKTVVPCCSGPKRPQDKVAVSDMKKDFESCLGAKQGFKGFQVAPEHHNDHKTFIYDNTEFTLAHGSVVIAAITSCTNTSNPSVMLGAGLLAKKAVDAGLNVMPYIKTSLSPGSGVVTYYLQESGVMPYLSQLGFDVVGYGCMTCIGNSGPLPEPVVEAITQGDLVAVGVLSGNRNFEGRVHPNTRANYLASPPLVIAYAIAGTIRIDFEKEPLGVNAKGQQVFLKDIWPTRDEIQAVERQYVIPGMFKEVYQKIETVNESWNALATPSDKLFFWNSKSTYIKSPPFFENLTLDLQPPKSIVDAYVLLNLGDSVTTDHISPAGNIARNSPAARYLTNRGLTPREFNSYGSRRGNDAVMARGTFANIRLLNRFLNKQAPQTIHLPSGEILDVFDAAERYQQAGLPLIVLAGKEYGAGSSRDWAAKGPFLLGIKAVLAESYERIHRSNLVGMGVIPLEYLPGENADALGLTGQERYTIIIPENLKPQMKVQVKLDTGKTFQAVMRFDTDVELTYFLNGGILNYMIRKMAK
Kd [4]: 0.02 to 0.05 nM
